These results are taken from ChEMBL document CHEMBL5214942, “Discovery of biphenyls bearing thiobarbiturate fragment by structure-based strategy as Mycobacterium tuberculosis protein tyrosine phosphatase B inhibitors” (Bioorg Med Chem, 2022).

Values after ≈ are worked out from the molar mass of the structure shown. Active and inactive are the calls of the source.

In data set [1] the test system is Mycobacterium tuberculosis. Kind of data set: Antimycobacterial activity against Mycobacterium tuberculosis H37Rv measured by microplate alamar blue assay. The format is functional.
Data set [2] can be described thus: Cytotoxicity against African green monkey Vero cells after 48 hrs by MTT assay. It counts as toxicity, cell-based. The note with it: African green monkey (Chlorocebus sabaeus). On the technique in general: Tetrazolium assays rely on reduction of a dye to a coloured formazan, in cell work by metabolically active cells.
A short description of data set [3]: Cytotoxicity against mouse J774.A1 cells after 48 hrs by MTT assay. The format is toxicity, cell-based.
For data set [4], the target named is T1, Phosphotyrosine-protein phosphatase PTPB (Mycobacterium tuberculosis) (UniProt P96830).
T1 sequence (whole entry): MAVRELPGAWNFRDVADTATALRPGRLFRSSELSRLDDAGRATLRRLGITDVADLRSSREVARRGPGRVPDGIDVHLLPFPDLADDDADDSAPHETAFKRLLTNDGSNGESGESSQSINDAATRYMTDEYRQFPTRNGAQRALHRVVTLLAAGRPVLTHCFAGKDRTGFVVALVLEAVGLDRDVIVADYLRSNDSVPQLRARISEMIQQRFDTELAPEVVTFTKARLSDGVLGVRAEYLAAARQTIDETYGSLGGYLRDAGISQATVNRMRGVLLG
Kind of data set: Inhibition of recombinant Mycobacterium tuberculosis H37Rv MptpB using pNPP as substrate incubated for 10 mins at 50 uM and measured by spectrophotometric method relative to control.

For data set [5], the target named is T2, Phosphotyrosine-protein phosphatase PTPB (Mycobacterium tuberculosis, UniProt P96830).
T2 sequence (P96830 whole entry): T1 sequence (whole entry)
Kind of data set: Inhibition of recombinant Mycobacterium tuberculosis H37Rv MptpB using pNPP as substrate incubated for 10 mins and measured by spectrophotometric method.

Data set [6] addresses T3, Low molecular weight protein-tyrosine phosphatase A (Mycobacterium tuberculosis) (UniProt P9WIA1).
T3 sequence (whole entry): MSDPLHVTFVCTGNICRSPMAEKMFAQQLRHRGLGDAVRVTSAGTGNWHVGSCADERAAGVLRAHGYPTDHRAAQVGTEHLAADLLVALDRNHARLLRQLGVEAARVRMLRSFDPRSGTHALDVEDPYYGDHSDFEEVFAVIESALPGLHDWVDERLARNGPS
Kind of data set: Inhibition of recombinant Mycobacterium tuberculosis H37Rv MptpA using pNPP as substrate at 50 uM incubated for 10 mins and measured by spectrophotometric method relative to control.

Data set [7] has as its target T4, Low molecular weight protein-tyrosine phosphatase A (Mycobacterium tuberculosis, UniProt P9WIA1).
T4 sequence (P9WIA1 whole entry): T3 sequence (whole entry)
Kind of data set: Inhibition of recombinant Mycobacterium tuberculosis H37Rv MptpA using pNPP as substrate incubated for 10 mins and measured by spectrophotometric method.

The target of data set [8] is T5, Tyrosine-protein phosphatase non-receptor type 1 (Homo sapiens) (UniProt P18031).
T5 sequence (whole entry): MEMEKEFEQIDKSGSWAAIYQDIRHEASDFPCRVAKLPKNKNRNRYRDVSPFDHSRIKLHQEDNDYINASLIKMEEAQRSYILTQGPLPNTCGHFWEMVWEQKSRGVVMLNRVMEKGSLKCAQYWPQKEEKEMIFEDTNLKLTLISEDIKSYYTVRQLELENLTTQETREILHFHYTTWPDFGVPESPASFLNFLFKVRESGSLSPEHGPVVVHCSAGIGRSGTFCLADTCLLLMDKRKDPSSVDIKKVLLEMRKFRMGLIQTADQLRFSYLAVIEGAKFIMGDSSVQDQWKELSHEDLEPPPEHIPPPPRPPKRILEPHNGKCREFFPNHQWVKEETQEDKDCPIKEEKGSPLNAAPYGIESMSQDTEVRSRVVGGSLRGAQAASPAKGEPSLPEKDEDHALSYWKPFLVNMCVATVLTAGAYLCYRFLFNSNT
Kind of data set: Inhibition of recombinant human PTP1B using pNPP as substrate preincubated for 5 mins followed by substrate addition assessed as reduction in p-nitrophenol release at 50 uM relative to control.

The target of data set [9] is T6, Tyrosine-protein phosphatase non-receptor type 1 (Homo sapiens, UniProt P18031).
T6 sequence (P18031 whole entry): T5 sequence (whole entry)
Kind of data set: Inhibition of recombinant human PTP1B using pNPP as substrate preincubated for 5 mins followed by substrate addition assessed as reduction in p-nitrophenol release.

Data set [10] addresses T2, Phosphotyrosine-protein phosphatase PTPB. Kind of data set: Non-competitive inhibition of recombinant Mycobacterium tuberculosis H37Rv MptpB using pNPP as substrate.
Data set [11] has as its system Mycobacterium tuberculosis. Kind of data set: Antimycobacterial activity against Mycobacterium tuberculosis infected in mouse J774.A1 cells assessed as reduction in intracellular bacterial burden at 5 ug/ml measured by colony counting method. It counts as functional. The note with it: dose 5 µg/ml. The arrangement: scale not given: the % may be the effect or the level left.

The subject of data set [12] is Mycobacterium tuberculosis. Kind of data set: Antimycobacterial activity against Mycobacterium tuberculosis infected in mouse J774.A1 cells assessed as reduction in intracellular bacterial burden at 1 to 10 ug/ml measured by colony counting method. The format is functional, organism-based. The note with it: dose 1-10 µg/ml.

Usually MIC stands for the smallest concentration in the dilution series that meets the test's criterion for growth inhibition. By IC50 is commonly meant the concentration that gives 50% inhibition. As to `CO[C@H]1/C=C/O[C@@]2(C)Oc3c(C)c(O)c4c(O)c(c(/C=N/N5CCN(C)CC5)c(O)c4c3C2=O)NC(=O)/C(C)=C\C=C\[C@H](C)[C@H](O)[C@@H](C)[C@@H](O)[C@@H](C)[C@H](OC(C)=O)[C@@H]1C` [RIFAMPIN], the lowest concentration to inhibit growth in [1] (MIC) was 0.037 µg/mL (≈ 0.045 µM). Moreover, the 50% inhibitory concentration (IC50) at 48 h in data set [2] and in data set [3] was over 64 µg/mL each time.

Broadly, the inhibition is the share of the control response that was lost under treatment. With `O=C1NC(=S)NC(=O)C1=Cc1cc(-c2ccc(OC(F)(F)F)cc2)ccc1OCc1ccc(Cl)cc1`, the inhibition in [4] came to 65%.

As for `O=C1NC(=O)C(=Cc2cc(-c3cc(Cl)c(O)c(Cl)c3)ccc2OCc2ccc(Cl)cc2)C(=O)N1`, the inhibition in data set [4] was determined as 16.2%.

`O=C1NC(=S)NC(=O)C1=Cc1c(OCc2ccc(Cl)cc2)cccc1-c1cc(Cl)c(O)c(Cl)c1`: in data set [4], the inhibition turned out to be 45.5%.

For the compound `O=C1NC(=S)NC(=O)C1=Cc1cc(-c2ccc(C(F)(F)F)cc2)ccc1OCc1ccc(Cl)cc1`, the IC50 worked out at 3.82 µM in [5], 20 µM in data set [7] and 3.93 µM in [9]. For the same compound, the inhibition in [4] was 86.4%; in [6] it was 74.2%; in [8], 81.4%. Also, the MIC in data set [1] was over 32 µg/mL. In addition, the IC50 at 48 h is over 64 µg/mL in data set [2] and 14.8 µg/mL (≈ 28.6 µM) in data set [3].

For the compound `O=C1NC(=S)NC(=O)C1=Cc1cc(-c2cc(Cl)c(O)c(Cl)c2)ccc1OCc1cc(F)cc(F)c1`, the concentration for half-maximal inhibition (IC50) in [5] came to 5.32 µM; in data set [9] it was 6.28 µM. For the same compound, the figures for the inhibition in data set [4] and in [8] were 89.1% and 92.3%, respectively. This compound returned an MIC in [1] of over 32 µg/mL. Besides, the results for the IC50 at 48 h in [2] and in data set [3] were over 64 µg/mL and 15.4 µg/mL (≈ 28.8 µM), respectively.

Consider `O=C1NC(=S)NC(=O)C1=Cc1cc(OCc2ccc(Cl)cc2)cc(-c2cc(Cl)c(O)c(Cl)c2)c1`, for which the IC50 is 4.7 µM in [5] and 7.81 µM in data set [9]. Also, the inhibition in data set [4] turned out to be 91.6%; in [6], 39.7%; in data set [8], 93.7%. Further, the MIC in data set [1] is over 32 µg/mL. The IC50 at 48 h in data set [2] was over 64 µg/mL; in [3], 39.9 µg/mL (≈ 74.7 µM).

On to `CN1C(=O)C(=Cc2cc(-c3cc(Cl)c(O)c(Cl)c3)ccc2OCc2ccc(Cl)cc2)C(=O)N(C)C1=O`, for which the inhibition in data set [4] amounted to 51.9%.

As to `O=C1NC(=S)NC(=O)C1=Cc1cc(-c2ccc(O)c(Cl)c2)ccc1OCc1ccc(Cl)cc1`, the inhibition in [4] amounted to 72.7%.

Consider `CN1C(=O)C(=Cc2cc(-c3cc(Cl)c(O)c(Cl)c3)ccc2OCc2ccc(Cl)cc2)C(=O)N(C)C1=S`, for which the 50% inhibitory concentration (IC50) in data set [5] was 14.1 µM. Also, in data set [4], the inhibition stood at 87%.

For `Cc1onc(C(=O)O)c1-c1cccc(-c2cc(Cl)c(O)c(Cl)c2)c1`, the IC50 in data set [5] was determined as 2.98 µM.

The Ki is the equilibrium dissociation constant of an inhibitor or competing ligand from its target. With `O=C1NC(=S)NC(=O)C1=Cc1cc(-c2cc(Cl)c(O)c(Cl)c2)ccc1OCc1ccc(Cl)cc1`, the concentration for half-maximal inhibition (IC50) in data set [5] came out at 1.18 µM; in data set [7], 8.97 µM; in [9] it was 5.16 µM. The inhibition in [4] was 95.9%; in data set [6] it was 86.4%; in data set [8] it was 98.3%. In data set [1], this compound showed an MIC of over 32 µg/mL. In addition, the half-inhibitory concentration (IC50) at 48 h was over 64 µg/mL in data set [2] and 13 µg/mL (≈ 24.4 µM) in data set [3]. For the same compound, the inhibition constant Ki in [10] was 1.01 µM. The Activity in data set [11] was found to be 90%. Besides, the result in data set [12] was Active.

With `O=C1NC(=S)NC(=O)C1=Cc1cc(-c2ccc(Cl)cc2)ccc1OCc1ccc(Cl)cc1`, the inhibition in [4] is 77.5%.

On to `O=C1NC(=S)NC(=O)C1=Cc1cc(-c2ccc3occc(=O)c3c2)ccc1OCc1ccc(Cl)cc1`, for which, in data set [4], the inhibition turned out to be 73%.

On to `O=C1NC(=S)NC(=O)C1=Cc1ccc(OCc2ccc(Cl)cc2)c(-c2cc(Cl)c(O)c(Cl)c2)c1`, for which the results for the 50% inhibitory concentration (IC50) in [5] and in data set [9] were 5.95 µM and 3.43 µM, respectively. Further, the inhibition in [4] worked out at 84.4%; in [6], 69.6%; in [8], 98.2%. In addition, the minimal inhibitory concentration (MIC) in data set [1] was over 32 µg/mL. The half-inhibitory concentration (IC50) at 48 h is over 64 µg/mL in data set [2] and 13.9 µg/mL (≈ 26 µM) in [3].

For the compound `O=C1NC(=S)NC(=O)C1=Cc1cc(-c2ccc(O)c(F)c2)ccc1OCc1ccc(Cl)cc1`, in [4], the inhibition worked out at 65%.

`C/C=C(\C)[C@@H]1C(C)=C[C@@H]2CC(C)=CC[C@H]2[C@@H]1/C=C/C=C(\C)[C@@H](O)[C@@H](C)C(=O)O`: in [5], the IC50 worked out at 1.05 µM.

For the compound `O=C1NC(=S)NC(=O)C1=Cc1cc(-c2ccccc2)ccc1OCc1ccc(Cl)cc1`, the inhibition in data set [4] worked out at 43.9%.

Take `O=C1NC(=S)NC(=O)C1=Cc1cc(Br)ccc1OCc1ccc(Cl)cc1`: the IC50 in [5] came out at 22.4 µM. In addition, the inhibition in [4] was found to be 63%.

With `O=C1NC(=S)NC(=O)C1=Cc1cc(-c2cc(Cl)c(O)c(Cl)c2)ccc1OCc1ccccc1`, the IC50 is 3.81 µM in data set [5] and 27.3 µM in data set [9]. The inhibition in data set [4] amounted to 95.4%; in data set [6], 14.6%; in [8], 87.7%. Also, the MIC in data set [1] came to 25.1 µg/mL (≈ 50.2 µM). Further, the IC50 at 48 h is over 64 µg/mL in data set [2] and 3.44 µg/mL (≈ 6.89 µM) in data set [3].

In the case of `O=C1NC(=S)NC(=O)C1=Cc1ccc(OCc2ccc(Cl)cc2)cc1-c1cc(Cl)c(O)c(Cl)c1`, the values for the IC50 in [5] and in data set [9] were 3.62 µM and 34.1 µM, respectively. For the same compound, the inhibition in data set [4] stood at 95%; in [6], 49%; in [8] it was 78.6%. In addition, the MIC in data set [1] is over 32 µg/mL. The IC50 at 48 h is over 64 µg/mL in data set [2] and 57 µg/mL (≈ 107 µM) in [3].

On to `COc1ccc(-c2ccc(OCc3ccc(Cl)cc3)c(C=C3C(=O)NC(=S)NC3=O)c2)cc1`, for which, in data set [4], the inhibition is 42.7%.

`O=C1NC(=S)NC(=O)C1=Cc1cc(-c2cc3ccccc3s2)ccc1OCc1ccc(Cl)cc1`: the inhibition in data set [4] amounted to 57.5%.

With `O=C1NC(=S)NC(=O)C1=Cc1ccc(-c2cc(Cl)c(O)c(Cl)c2)c(OCc2ccc(Cl)cc2)c1`, the inhibition in data set [4] is 75.2%.

In the case of `COC(=O)c1ccc(-c2ccc(OCc3ccc(Cl)cc3)c(C=C3C(=O)NC(=S)NC3=O)c2)cc1`, in data set [4], the inhibition came out at 63.3%.

Turning to `O=C(C(c1ccccc1)S(=O)(=O)O)N1CCCC2CCCCC21` (configuration not stated), the IC50 in [5] was determined as 0.018 µM.

Turning to `NNC(=O)c1ccncc1` [ISONIAZID], in data set [1], the MIC was determined as 0.072 µg/mL (≈ 0.525 µM). Besides, the IC50 at 48 h in data set [2] and in data set [3] was over 64 µg/mL each time.

Regarding `Cc1cc(-c2ccc(OCc3ccc(Cl)cc3)c(C=C3C(=O)NC(=S)NC3=O)c2)cc(C)c1O`, the inhibition in data set [4] stood at 59.2%.
